# Measured values published in patent US20240398767A1, “INHIBITORS OF THE MTDH-SND1 PROTEIN COMPLEX FOR CANCER THERAPY” (The Trustees of Princeton University, priority 2021, published 2024).
# Columns and labels:
# PyMT tumor cells = experiment: Experimental lung metastasis, tail vein injection of PyMT tumor cells; type: in vivo, FVB mice; conditions: treatment from 3 days after injection, five weeks
# Method: FIG. 5L, 2 k PyMT tumor cells were injected into FVB females via tail-vein. 3 days after injection, the mice were treated with vehicle or C26-A6.
# FIG. 5M, 2 k PyMT tumor cells were injected into FVB females via tail-vein. 3 days after injection, the mice were treated with vehicle or C26-A6. 5 weeks later, lung metastatic nodules were counted. n=6 mice per group. Data represent mean±SEM.
# (§1) To exclude the possibility that the lung metastasis reduction upon C26-A6 treatment was due to the smaller primary tumor, tail vein injection of PyMT tumor cells was performed to form experimental lung metastasis in FVB mice. Three days later, mice were divided randomly into two groups and treated with vehicle or C26-A6 respectively (FIG. 5L).
# SCP28 cells = experiment: Experimental lung metastasis of SCP28 cells; type: in vivo; conditions: 5 weeks treatment
# Method: FIG. 17D, Tail-vein injection lung metastasis was determined by BLI right before (Week 0) or after (5 weeks) vehicle or C26-A6 treatment. Vehicle, n=11 lungs; C26-A6, n=12 lungs.
# FIG. 17E, Lung metastatic nodules were quantified. The metastatic nodules of the representative lungs were highlighted with red and blue respectively. Size bar, 5 mm. Vehicle, n=11 lungs; C26-A6, n=12 lungs.
# as §1
# [1] = biological target: T1, MTDH-SND1 interaction in SCP28 tumors (Homo sapiens, UniProt Q7KZF4); experiment: In vivo split-luciferase bioluminescence in SCP28 tumors; parameters: species or system NSG female mice; conditions: 0.25 mg or 0.5 mg via tail-vein injection, 30 min after treatment
# T1 construct: SND1-NLuc and CLuc-MTDH flanked by BamH 1 and Not 1 restriction sites were inserted into pcDNA3.1 and pRVPTO (retrovrial) vectors; expressed in transfected cells; host or cells: SCP28 cells stably transduced with pRVPTO retroviral vectors (packaged in H29 cells); in culture (A5) or as orthotopic tumours in NSG mice (A11)
# T1 sequence (Q7KZF4 with tags, fused parts or gaps): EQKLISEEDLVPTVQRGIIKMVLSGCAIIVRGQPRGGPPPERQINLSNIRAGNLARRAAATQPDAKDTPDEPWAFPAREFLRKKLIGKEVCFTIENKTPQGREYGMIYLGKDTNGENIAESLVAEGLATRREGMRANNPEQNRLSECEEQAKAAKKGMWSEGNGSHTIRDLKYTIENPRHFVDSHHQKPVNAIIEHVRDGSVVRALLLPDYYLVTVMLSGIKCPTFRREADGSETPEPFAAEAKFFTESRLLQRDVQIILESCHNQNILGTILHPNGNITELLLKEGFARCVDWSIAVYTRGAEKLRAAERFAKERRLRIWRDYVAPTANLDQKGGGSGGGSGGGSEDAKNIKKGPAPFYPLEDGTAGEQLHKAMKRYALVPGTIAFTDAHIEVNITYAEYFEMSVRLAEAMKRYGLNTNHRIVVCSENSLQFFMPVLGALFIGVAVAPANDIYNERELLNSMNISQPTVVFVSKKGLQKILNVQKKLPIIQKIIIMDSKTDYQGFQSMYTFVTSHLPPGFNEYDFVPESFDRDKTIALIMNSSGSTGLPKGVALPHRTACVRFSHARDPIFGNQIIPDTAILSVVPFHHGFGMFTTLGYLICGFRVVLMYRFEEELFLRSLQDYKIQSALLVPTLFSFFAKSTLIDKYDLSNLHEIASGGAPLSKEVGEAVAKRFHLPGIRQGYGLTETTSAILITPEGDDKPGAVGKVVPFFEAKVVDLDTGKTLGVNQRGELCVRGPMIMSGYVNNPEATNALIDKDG
# Method: FIG. 12A, NSG female mice were inoculated with 10 k of SCP28 cells that express split-luciferase components by MFP injection. Two weeks after injection, the mice were treated with 0.25 mg/mouse or 0.5 mg/mouse of C26-A6 via tail-vein injection. 30 min after the treatment, luciferase activity at primary tumors was measured.
# FIG. 12B, Luciferase activity at primary tumors from mice in FIG. 12A. Data represent mean±SEM. n=3 mice. Significance determined by one-way ANOVA analysis with Dunnett's test for multiple comparisons.
# To test the in vivo blocking effect of C26-A6 on MTDH-SND1 interaction, mice with SCP28 tumors that stably express split-luciferase components were treated with vehicle, 0.25 mg or 0.5 mg of C26-A6 via tail-vein injection followed by bioluminescence imaging.
# [2] = test system: PyMT tumor immune microenvironment; experiment: Immune cell profiling of orthotopic PyMT tumors and lungs by flow cytometry; type: in vivo, FVB females; conditions: six weeks after treatment
# Excerpt: FIGS. 35A-35C show C26-A6 combined with anti-PD-1 treatment reshapes the tumor immune microenvironment. For FIGS. 35A-35C, 100 k PyMT tumor cells were orthotopically injected into the mammary glands of FVB females. The mice were randomized and divided into three groups when primary tumors were established, followed by vehicle, C26-A6, or C26-A6+anti-PD-1 treatment. Six weeks after treatment, primary tumors and lung with metastatic lesions were collected for flow analysis with indicated antibodies. Anti-PD-1, 200 μg/mouse i.p. injection, twice per week for the first week and then once per week after that; C26-A6, 15 mg/kg i.v. injection, 5 days per week. n=6 mice per group. Data represent mean±SEM. Significance determined by one-way ANOVA analysis with Dunnett's test for multiple comparisons.
# FIG. 35A, Percentages of CD11b^+F4/80^+, Ly6G^lowLy6C^high, Ly6G^highLy6C^low, CD3-NK1.1^+ in CD45^+ population and percentage of CD4^+FOXP3^+ in CD3^+ population are shown.
# FIG. 35B, Percentages of GITR^+LAG-3^+ in CD8^+ population are shown.
# Flow cytometry. Dissociated tumors or lungs were dissected and prepared as previously described^10. […]. Organoids were sequentially suspended with 0.25% trypsin-EDTA for 1.5 min, 5 mg/ml Dispase (Invitrogen), and 0.1 mg/ml DNase (Sigma) for 5 min, and 0.64% ammonium chloride for 5 min at 37° C. before filtration through a 40 μm nylon cell strainer. Tumor or lung cell suspensions were incubated with an antibody cocktail in FACS buffer (PBS+3% BSA) for 30 minutes at 4° C., washed, and resuspended in FACS buffer for flow analysis. Isotype controls were used to assess specificity of antibody labeling. […] Samples were analyzed with BD FACSDiva v6 software and data was processed with FlowJo v10 software. […]
compound,measurement,setting,value
COc1ccc(Cl)cc1S(=O)(=O)Nc1cccn2nc(C)nc12 [Analog C26-A6],lung metastasis (metastatic nodules),PyMT tumor cells,significantly suppressed lung metastasis
same,experimental lung metastasis,SCP28 cells,dramatically inhibited
same,MTDH-SND1 interaction in vivo (luciferase activity at primary tumors),[1],blocks MTDH-SND1 interaction in vivo in a dose-dependent manner
same,CD8+ T cell exhaustion (GITR+LAG-3+ in CD8+ population),[2],elevated CD8^+ T cell exhaustion
same,infiltration of Ly6GhighLy6Clow sub-population of MDSCs,[2],reduced
same,infiltration of Ly6GlowLy6Chigh sub-population of MDSCs,[2],significantly enhanced
same,"populations of macrophages, NK cells and regulatory T cells",[2],not significantly altered
